# Legend:
# Assay type in all cases: cell-based
# ANO2 = molecular target: T1, ANO2 (Mus musculus, UniProt Q8CFW1); test: Apical membrane current in FRT-ANO2 cells
# T1 sequence (Q8CFW1 1-1002): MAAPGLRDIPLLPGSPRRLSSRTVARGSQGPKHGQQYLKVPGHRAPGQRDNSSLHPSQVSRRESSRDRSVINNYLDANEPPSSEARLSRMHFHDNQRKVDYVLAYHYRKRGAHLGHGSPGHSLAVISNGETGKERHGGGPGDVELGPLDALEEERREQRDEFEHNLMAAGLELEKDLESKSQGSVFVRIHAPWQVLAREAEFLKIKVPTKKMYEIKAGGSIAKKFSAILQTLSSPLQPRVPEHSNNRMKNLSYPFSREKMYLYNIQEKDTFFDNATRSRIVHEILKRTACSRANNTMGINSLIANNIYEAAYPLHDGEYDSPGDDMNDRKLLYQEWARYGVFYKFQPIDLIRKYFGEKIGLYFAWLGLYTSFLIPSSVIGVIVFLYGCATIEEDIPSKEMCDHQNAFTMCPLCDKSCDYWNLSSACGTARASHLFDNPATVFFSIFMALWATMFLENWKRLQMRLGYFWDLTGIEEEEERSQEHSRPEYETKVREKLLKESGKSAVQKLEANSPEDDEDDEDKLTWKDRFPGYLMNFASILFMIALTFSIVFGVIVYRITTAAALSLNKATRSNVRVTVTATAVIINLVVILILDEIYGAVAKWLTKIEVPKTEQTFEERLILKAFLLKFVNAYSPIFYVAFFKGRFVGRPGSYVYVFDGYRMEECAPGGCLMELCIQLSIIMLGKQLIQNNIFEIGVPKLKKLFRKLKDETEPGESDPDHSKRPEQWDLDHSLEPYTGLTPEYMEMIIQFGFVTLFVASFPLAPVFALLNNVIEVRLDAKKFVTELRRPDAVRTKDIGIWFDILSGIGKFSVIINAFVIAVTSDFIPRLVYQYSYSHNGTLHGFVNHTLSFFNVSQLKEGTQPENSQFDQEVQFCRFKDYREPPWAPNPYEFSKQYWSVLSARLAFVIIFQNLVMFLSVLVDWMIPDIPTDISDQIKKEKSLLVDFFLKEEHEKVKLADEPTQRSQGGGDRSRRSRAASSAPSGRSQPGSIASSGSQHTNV
# Description: (§1) Snapwell inserts containing ANO1, ANO2 or CFTR expressing FRT cells, ENaC expressing T-84 cells or the human primary airway epithelial cells were mounted in Ussing chambers (Physiologic Instruments, San Diego, CA). To induce transcriptional ENaC induction, the polarized T84 cells were incubated with 2 mM sodium butyrate for 2 days. To increase the functional expression of ANO1, the human airway epithelial cells were treated with IL-4 (10 ng/mL) for 2 days. For T-84 and the human primary airway epithelial cells, the apical and basolateral bath were filled with HCO3^—buffered solution containing (in mM): 120 NaCl, 5 KCl, 1 MgCl2, 1 CaCl2, 10 D-glucose, 2.5 HEPES, and 25 NaHCO3 (pH 7.4). For FRT cells, the basolateral bath was filled with the HCO3^—buffered solution and the apical bath was filled with a half-Cl^- solution. In the half-Cl^- solution 65 mM NaCl in the HCO3^—buffered solution was replaced by Na-gluconate. […] ATP was applied to the apical bath solution to induce intracellular calcium increase. […] Apical membrane currents were measured with an EVC4000 Multi-Channel V/I Clamp (World Precision Instruments, Sarasota, FL) and PowerLab 4/35 (AD Instruments, Castle Hill, Australia). Data were analyzed using Labchart Pro 7 (AD Instruments). The sampling rate was 4 Hz.
# ANO1 belongs to anoctamin gene family which contains ten members presenting eight-pass transmembrane segments with cytosolic N- and C-terminals. ANO2 shares a high level of amino acid homology to ANO1 (~60%) and, ANO1 and ANO2 are confirmed CaCCs. However, the roles of other family members (ANO3-ANO10) remain poorly understood and controversial. […] We investigated the effect of these inhibitors on ANO2-mediated apical membrane current in FRT-ANO2 cells.
# mouse ANO2 = molecular target: T2, mouse ANO2 (Mus musculus, UniProt Q8CFW1); test: YFP quenching assay in FRT cells expressing ANO2; conditions: up to 10 μM, 100 μM ATP
# T2 sequence (Q8CFW1 1-1002): T1 sequence (Q8CFW1 1-1002)
# human wild-type CFTR = molecular target: T3, human wild-type CFTR (Homo sapiens, UniProt P13569); test: Apical membrane current in FRT cells expressing CFTR; conditions: up to 30 μM, CFTR activated by 20 μM forskolin
# T3 construct: expressed in transfected cells; host or cells: Fischer rat thyroid (FRT) cells
# Description: as §1
# ANO1 was activated by either 10 μM Eact, an ANO1 activator, or 100 μM ATP.
# T3 sequence (P13569 whole entry): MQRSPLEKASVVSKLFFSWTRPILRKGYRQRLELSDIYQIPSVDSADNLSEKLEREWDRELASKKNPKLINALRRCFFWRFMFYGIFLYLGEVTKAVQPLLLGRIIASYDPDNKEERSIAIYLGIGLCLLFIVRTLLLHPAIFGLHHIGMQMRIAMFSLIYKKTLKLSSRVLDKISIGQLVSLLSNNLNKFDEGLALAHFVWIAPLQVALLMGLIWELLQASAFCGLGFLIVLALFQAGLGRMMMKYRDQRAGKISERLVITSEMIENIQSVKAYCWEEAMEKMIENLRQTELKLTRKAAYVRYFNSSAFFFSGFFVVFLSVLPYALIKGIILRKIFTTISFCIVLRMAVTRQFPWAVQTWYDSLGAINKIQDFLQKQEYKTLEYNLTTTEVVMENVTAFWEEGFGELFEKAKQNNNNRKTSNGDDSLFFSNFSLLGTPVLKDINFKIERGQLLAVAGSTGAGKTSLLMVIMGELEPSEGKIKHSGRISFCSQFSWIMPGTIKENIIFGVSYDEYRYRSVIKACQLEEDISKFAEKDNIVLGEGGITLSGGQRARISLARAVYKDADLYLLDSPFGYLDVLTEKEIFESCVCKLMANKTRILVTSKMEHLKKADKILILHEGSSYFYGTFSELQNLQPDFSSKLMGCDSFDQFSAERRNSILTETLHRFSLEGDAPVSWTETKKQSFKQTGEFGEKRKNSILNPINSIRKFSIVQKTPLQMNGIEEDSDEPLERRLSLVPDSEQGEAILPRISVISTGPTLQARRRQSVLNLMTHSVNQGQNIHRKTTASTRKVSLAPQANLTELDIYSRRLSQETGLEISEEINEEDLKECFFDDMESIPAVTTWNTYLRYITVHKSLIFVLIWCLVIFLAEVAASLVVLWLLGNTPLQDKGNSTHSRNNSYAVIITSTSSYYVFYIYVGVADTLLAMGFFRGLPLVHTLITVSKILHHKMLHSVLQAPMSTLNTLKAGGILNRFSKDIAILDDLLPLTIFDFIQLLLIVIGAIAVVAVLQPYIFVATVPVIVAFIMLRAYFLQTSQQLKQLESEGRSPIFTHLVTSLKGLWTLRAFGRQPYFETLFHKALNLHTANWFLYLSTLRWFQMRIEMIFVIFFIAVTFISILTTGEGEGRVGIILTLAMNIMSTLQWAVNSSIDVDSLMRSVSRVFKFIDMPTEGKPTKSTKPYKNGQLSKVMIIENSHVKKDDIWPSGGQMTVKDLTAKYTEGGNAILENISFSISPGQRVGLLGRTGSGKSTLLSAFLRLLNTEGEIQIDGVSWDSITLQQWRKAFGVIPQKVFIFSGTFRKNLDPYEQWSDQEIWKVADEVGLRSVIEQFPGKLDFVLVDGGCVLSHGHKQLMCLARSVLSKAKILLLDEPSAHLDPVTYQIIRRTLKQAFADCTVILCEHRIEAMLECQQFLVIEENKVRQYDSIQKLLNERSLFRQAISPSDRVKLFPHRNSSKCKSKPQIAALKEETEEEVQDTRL
compound,measurement,setting,value
"COc1ccccc1C=NNC(=O)COc1ccc(Cl)cc1C [Ani9, 2-(4-chloro-2-methylphenoxy)-N-[(2-methoxyphenyl)methylideneamino]-acetamide]",effect on ATP-induced ANO2 current,ANO2; 1 μM pretreatment,did not affect
same,block of ANO2 current,ANO2; 10 μM pretreatment,10 ± 1.6%
same,inhibitory effect on ANO2,ANO2; higher concentrations (3 and 10 μM),relatively small inhibitory effect
same,effect on ANO2 activity,mouse ANO2,did not significantly affect
same,effect on CFTR channel activity,human wild-type CFTR,no effect
